Columns and labels:
JNK3 = JNK3 (Homo sapiens, UniProt P53779); assay: biochemical; settings: read-out: % enzyme activity, 1 μM; Run 1, Run 2
SLK/STK2 = SLK/STK2 (Homo sapiens, UniProt Q9H2G2); settings: 1 μM; Run 1, Run 2
CAMK2d = CAMK2d (Homo sapiens, UniProt Q13557); assay: biochemical; settings: read-out: % enzyme activity, 1 μM; Run 1, Run 2
ZIPK/DAPK3 = ZIPK/DAPK3 (Homo sapiens, UniProt O43293); assay: biochemical; settings: read-out: % enzyme activity, 1 μM; Run 1, Run 2
SYK = SYK (Homo sapiens, UniProt P43405); assay: biochemical; settings: read-out: % enzyme activity, 1 μM; Run 1, Run 2
ABL1 = ABL1 (Homo sapiens, UniProt P00519); assay: biochemical; settings: read-out: % enzyme activity, 1 μM; Run 1, Run 2
ABL1, sequence (P00519 whole entry): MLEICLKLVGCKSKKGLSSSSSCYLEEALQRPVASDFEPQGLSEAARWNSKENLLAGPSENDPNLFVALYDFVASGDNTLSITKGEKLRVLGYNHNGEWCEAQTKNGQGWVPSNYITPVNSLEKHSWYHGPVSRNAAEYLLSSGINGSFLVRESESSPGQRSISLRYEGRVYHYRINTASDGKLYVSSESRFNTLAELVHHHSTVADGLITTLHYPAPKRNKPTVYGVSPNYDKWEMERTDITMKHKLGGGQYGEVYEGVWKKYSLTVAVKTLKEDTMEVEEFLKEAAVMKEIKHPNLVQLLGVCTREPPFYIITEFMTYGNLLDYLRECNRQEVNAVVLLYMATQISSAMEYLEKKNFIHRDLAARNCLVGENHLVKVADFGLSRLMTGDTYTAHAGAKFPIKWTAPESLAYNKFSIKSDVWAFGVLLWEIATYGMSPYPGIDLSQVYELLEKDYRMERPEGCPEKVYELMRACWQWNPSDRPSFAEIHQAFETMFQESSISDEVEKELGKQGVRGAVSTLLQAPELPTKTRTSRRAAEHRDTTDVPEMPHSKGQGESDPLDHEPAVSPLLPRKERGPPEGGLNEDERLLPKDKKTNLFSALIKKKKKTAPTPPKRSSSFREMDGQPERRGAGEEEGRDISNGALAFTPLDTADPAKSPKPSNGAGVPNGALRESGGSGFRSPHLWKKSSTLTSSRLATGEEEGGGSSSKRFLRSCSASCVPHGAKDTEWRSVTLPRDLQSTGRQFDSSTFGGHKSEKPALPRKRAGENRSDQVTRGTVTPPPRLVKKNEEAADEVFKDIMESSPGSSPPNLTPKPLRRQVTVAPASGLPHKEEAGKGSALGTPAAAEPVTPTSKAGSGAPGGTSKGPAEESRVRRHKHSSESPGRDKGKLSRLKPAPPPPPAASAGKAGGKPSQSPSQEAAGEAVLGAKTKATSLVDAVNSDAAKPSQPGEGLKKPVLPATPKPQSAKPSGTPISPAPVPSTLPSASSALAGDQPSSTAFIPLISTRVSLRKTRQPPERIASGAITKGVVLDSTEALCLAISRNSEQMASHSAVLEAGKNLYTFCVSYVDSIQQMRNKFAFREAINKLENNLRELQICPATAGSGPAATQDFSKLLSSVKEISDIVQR

MSSK1/STK23 = MSSK1/STK23 (Homo sapiens, UniProt Q9UPE1); assay: biochemical; settings: read-out: % enzyme activity, 1 μM; Run 1, Run 2
TRKB = TRKB (Homo sapiens, UniProt Q16620); settings: 1 μM; Run 1, Run 2
CHK1 = target: T1, CHK1 (Homo sapiens, UniProt O14757); assay: biochemical; settings: read-out: % enzyme activity, 1 μM; Run 1, Run 2
T1 sequence (O14757 1-476): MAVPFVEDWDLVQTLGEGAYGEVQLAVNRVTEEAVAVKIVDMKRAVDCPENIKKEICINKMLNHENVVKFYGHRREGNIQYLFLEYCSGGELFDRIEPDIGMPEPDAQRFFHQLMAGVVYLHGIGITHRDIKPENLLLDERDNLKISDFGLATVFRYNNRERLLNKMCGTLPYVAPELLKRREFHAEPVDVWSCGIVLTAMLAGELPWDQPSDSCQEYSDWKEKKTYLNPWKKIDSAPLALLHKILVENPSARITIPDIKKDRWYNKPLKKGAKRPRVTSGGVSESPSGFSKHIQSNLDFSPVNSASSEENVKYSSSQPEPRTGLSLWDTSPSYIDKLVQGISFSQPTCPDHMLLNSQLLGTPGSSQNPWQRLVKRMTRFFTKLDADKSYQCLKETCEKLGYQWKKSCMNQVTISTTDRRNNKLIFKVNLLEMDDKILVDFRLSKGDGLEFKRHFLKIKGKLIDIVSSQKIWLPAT

ALK = ALK (Homo sapiens, UniProt Q9UM73); assay: biochemical; settings: read-out: % enzyme activity, 1 μM; Run 1, Run 2
ALK, sequence (Q9UM73 19-1620): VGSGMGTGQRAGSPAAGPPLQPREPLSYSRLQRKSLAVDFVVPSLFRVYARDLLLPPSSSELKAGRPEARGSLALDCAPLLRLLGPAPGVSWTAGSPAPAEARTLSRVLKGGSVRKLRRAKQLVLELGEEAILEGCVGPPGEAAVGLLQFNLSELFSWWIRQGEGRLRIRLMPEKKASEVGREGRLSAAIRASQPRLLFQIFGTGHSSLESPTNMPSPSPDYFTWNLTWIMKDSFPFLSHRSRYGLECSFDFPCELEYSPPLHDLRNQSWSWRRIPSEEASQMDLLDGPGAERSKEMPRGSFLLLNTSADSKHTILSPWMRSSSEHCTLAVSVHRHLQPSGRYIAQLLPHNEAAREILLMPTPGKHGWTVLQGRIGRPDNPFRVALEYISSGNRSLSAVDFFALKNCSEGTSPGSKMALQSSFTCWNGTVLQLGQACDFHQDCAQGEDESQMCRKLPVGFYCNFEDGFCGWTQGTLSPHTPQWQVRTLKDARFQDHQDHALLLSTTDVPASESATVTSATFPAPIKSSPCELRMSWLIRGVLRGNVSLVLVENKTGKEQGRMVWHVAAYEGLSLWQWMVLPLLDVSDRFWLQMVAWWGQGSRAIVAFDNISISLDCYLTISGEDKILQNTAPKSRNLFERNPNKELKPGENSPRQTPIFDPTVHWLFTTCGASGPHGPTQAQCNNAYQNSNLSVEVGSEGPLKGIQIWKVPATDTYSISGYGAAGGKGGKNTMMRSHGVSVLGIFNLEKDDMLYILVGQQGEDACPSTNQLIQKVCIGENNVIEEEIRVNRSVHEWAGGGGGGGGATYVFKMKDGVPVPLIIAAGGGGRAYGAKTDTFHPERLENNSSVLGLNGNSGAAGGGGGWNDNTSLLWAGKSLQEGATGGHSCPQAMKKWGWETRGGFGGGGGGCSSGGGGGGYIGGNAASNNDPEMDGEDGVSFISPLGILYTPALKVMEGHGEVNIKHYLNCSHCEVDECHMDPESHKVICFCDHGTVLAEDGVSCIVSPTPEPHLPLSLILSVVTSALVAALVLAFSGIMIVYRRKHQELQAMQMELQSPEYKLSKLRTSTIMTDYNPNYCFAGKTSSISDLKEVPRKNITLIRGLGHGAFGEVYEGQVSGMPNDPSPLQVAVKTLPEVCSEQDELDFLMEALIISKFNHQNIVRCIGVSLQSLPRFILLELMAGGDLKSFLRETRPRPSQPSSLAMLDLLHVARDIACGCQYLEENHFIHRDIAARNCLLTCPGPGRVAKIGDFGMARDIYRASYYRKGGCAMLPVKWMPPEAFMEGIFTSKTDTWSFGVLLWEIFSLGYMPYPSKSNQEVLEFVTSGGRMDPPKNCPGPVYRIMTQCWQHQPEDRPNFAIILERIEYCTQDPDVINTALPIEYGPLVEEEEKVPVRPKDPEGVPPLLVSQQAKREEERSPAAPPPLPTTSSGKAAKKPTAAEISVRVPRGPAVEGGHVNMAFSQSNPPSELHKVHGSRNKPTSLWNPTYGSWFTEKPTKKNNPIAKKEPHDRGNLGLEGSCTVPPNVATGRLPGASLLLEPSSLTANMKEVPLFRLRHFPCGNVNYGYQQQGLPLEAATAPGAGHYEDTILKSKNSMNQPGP

FES/FPS = FES/FPS (Homo sapiens, UniProt P07332); assay: biochemical; settings: read-out: % enzyme activity, 1 μM; Run 1, Run 2
TYK2 = TYK2 (Homo sapiens, UniProt P29597); settings: 1 μM; Run 1, Run 2
TYK2, sequence (P29597 whole entry, species assumed): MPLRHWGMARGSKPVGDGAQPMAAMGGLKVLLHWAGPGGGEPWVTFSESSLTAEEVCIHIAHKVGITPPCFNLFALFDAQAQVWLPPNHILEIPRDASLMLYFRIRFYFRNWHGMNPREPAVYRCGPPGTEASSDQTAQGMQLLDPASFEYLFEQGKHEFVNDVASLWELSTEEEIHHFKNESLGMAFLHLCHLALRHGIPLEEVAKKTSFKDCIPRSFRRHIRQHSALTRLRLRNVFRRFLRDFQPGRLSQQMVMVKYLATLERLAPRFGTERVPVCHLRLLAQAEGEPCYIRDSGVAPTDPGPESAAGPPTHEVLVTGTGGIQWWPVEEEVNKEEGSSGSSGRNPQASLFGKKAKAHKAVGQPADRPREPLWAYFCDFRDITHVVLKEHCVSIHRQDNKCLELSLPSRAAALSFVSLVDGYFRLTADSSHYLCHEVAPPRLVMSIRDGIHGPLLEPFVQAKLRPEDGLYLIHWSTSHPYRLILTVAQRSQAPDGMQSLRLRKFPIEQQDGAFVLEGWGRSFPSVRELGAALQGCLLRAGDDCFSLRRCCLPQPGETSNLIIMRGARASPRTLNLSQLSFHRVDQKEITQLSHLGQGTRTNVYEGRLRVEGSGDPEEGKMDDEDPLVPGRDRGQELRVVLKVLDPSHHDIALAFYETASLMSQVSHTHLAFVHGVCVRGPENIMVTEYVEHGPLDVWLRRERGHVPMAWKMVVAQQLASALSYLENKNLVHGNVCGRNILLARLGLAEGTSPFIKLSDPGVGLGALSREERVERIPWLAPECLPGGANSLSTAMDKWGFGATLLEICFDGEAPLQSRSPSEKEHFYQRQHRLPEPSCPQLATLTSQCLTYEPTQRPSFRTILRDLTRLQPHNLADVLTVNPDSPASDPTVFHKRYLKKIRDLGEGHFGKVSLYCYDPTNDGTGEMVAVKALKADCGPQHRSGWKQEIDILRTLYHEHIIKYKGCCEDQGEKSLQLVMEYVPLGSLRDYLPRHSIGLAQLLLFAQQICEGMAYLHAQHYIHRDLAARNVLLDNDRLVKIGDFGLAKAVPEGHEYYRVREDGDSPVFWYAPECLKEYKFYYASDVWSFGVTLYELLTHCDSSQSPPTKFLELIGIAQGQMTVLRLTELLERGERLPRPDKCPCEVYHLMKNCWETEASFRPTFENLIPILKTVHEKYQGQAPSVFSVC

GRK6 = GRK6 (Homo sapiens, UniProt P43250); settings: 1 μM; Run 1, Run 2
CK2a2 = CK2a2 (Homo sapiens, UniProt P19784); settings: 1 μM; Run 1, Run 2
PAK5 = PAK5 (Homo sapiens, UniProt Q9P286); settings: 1 μM; Run 1, Run 2
MRCKb/CDC42BPB = MRCKb/CDC42BPB (Homo sapiens, UniProt Q9Y5S2); assay: biochemical; settings: read-out: % enzyme activity, 1 μM; Run 1, Run 2
LCK2/ICK = target: T2, LCK2/ICK (Homo sapiens, UniProt Q9UPZ9); assay: biochemical; settings: read-out: % enzyme activity, 1 μM; Run 1, Run 2
T2 sequence (Q9UPZ9 1-632): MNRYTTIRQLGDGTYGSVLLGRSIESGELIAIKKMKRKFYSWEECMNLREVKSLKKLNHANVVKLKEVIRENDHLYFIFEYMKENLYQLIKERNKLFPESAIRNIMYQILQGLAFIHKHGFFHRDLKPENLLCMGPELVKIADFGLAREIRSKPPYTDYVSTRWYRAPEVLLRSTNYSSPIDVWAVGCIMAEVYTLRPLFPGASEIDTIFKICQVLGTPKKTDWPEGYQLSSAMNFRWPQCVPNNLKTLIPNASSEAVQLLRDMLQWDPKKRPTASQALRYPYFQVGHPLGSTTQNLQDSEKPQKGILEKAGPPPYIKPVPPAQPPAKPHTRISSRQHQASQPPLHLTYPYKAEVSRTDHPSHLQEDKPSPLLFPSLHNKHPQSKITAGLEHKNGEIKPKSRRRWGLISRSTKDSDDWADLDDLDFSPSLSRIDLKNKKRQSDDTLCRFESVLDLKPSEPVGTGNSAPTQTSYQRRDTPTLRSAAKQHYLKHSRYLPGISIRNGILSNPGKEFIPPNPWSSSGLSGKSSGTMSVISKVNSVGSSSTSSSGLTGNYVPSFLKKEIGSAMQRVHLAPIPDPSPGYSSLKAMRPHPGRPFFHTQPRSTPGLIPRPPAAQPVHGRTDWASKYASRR

NEK8 = target: T3, NEK8 (Homo sapiens, UniProt Q86SG6); assay: biochemical; settings: read-out: % enzyme activity, 1 μM; Run 1, Run 2
T3 sequence (Q86SG6 1-692): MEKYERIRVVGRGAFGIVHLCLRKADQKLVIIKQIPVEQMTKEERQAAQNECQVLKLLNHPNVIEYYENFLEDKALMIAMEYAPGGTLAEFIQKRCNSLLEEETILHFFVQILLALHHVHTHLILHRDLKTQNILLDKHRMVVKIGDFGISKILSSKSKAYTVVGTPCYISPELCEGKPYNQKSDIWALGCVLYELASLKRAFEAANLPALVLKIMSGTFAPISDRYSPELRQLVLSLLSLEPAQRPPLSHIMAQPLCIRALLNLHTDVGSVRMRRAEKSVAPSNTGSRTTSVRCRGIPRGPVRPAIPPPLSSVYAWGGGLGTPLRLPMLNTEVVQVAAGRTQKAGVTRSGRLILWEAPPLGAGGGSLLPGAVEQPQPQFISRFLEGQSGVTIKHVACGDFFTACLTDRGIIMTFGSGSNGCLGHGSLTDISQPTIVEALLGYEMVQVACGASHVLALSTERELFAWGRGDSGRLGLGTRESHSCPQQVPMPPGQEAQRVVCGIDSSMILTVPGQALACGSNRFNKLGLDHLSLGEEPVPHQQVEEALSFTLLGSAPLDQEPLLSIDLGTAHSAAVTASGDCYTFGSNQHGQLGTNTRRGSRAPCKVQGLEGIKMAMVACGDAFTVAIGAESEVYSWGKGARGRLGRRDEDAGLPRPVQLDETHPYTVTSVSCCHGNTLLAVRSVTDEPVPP

SLK/STK2, sequence (Q9H2G2 whole entry): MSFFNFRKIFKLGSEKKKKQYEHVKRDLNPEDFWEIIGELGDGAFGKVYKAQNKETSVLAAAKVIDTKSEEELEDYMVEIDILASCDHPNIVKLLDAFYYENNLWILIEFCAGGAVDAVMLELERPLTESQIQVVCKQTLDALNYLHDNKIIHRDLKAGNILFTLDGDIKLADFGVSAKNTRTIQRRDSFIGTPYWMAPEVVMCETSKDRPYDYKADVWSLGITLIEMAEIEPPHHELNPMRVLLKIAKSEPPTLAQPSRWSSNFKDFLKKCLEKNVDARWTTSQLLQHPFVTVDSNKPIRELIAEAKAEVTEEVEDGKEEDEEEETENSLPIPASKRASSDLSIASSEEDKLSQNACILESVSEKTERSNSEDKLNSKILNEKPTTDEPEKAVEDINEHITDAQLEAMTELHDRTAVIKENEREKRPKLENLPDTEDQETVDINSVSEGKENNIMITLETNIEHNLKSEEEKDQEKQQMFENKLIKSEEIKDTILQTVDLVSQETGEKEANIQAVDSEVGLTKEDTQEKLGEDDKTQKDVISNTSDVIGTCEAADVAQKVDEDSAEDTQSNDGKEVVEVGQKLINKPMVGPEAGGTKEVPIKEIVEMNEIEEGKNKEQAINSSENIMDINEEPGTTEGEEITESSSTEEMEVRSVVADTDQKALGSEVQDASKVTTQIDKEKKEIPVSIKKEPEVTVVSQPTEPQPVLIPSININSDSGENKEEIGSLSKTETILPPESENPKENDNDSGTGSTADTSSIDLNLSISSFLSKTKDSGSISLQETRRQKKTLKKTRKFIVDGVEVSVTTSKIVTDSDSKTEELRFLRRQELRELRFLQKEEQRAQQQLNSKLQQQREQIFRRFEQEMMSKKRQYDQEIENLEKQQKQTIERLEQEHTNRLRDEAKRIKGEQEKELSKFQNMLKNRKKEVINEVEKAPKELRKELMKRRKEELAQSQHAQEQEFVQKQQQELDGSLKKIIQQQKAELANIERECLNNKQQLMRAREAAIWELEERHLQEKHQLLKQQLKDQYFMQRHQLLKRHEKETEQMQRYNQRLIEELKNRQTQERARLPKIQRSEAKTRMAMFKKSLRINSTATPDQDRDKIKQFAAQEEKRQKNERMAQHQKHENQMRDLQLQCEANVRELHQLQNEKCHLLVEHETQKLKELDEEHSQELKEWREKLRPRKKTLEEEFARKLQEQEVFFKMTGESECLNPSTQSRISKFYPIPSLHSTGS

| Compound | remaining activity at 1 µM (JNK3) [%] | % enzyme activity (SLK/STK2) [%] | remaining activity at 1 µM (CAMK2d) [%] | remaining activity at 1 µM (ZIPK/DAPK3) [%] | remaining activity at 1 µM (SYK) [%] | remaining activity at 1 µM (ABL1) [%] | remaining activity at 1 µM (MSSK1/STK23) [%] | % enzyme activity (TRKB) [%] | remaining activity at 1 µM (CHK1) [%] | remaining activity at 1 µM (ALK) [%] | remaining activity at 1 µM (FES/FPS) [%] | % enzyme activity (TYK2) [%] | % enzyme activity (GRK6) [%] | % enzyme activity (CK2a2) [%] | % enzyme activity (PAK5) [%] | remaining activity at 1 µM (MRCKb/CDC42BPB) [%] | remaining activity at 1 µM (LCK2/ICK) [%] | remaining activity at 1 µM (NEK8) [%] |
| --- | --- | --- | --- | --- | --- | --- | --- | --- | --- | --- | --- | --- | --- | --- | --- | --- | --- | --- |
| COc1cc(-c2cncc(-c3ccc(N4CCN(C)CC4)cc3)c2C)cc(F)c1C(N)=O [Compound 26a, 2-Fluoro-6-methoxy-4-(4-methyl-5-(4-(4-methylpiperazin-1-yl)phenyl)pyridin-3-yl)benzamide] | 96.4 | 96.16 | 95.1 | 104 | 101 | 75.2 | 99.3 | 99.94 | 98.2 | 99.9 | 99.9 | 91.37 | 107.43 | 92.27 | 92.74 | 94.6 | 108 | 98.4 |
| COc1cc(-c2cncc(-c3ccc(N4C[C@@H](C)N(C)[C@@H](C)C4)cc3)c2C)cc(F)c1C(N)=O [Compound 26c, 2-Fluoro-6-methoxy-4-(4-methyl-5-(4-((3R,5S)-3,4,5-trimethylpiperazin-1-yl)phenyl)pyridin-3-yl)benzamide] | 104 | 100.64 | 96.2 | 104 | 102 | 83.9 | 99.8 | 98.44 | 117 | 101 | 98.7 | 99.47 | 94.12 | 98.98 | 94.99 | 99.7 | 97.5 | 109 |
